Read-outs that look alike come from different tables or passages of the source.
Tests used:
CYP26A1 = biological target: T1, CYP26A1 (Mus musculus, UniProt O55127); conditions: 0.1 mM, 4 h, cells in culture
T1 sequence (O55127 1-497): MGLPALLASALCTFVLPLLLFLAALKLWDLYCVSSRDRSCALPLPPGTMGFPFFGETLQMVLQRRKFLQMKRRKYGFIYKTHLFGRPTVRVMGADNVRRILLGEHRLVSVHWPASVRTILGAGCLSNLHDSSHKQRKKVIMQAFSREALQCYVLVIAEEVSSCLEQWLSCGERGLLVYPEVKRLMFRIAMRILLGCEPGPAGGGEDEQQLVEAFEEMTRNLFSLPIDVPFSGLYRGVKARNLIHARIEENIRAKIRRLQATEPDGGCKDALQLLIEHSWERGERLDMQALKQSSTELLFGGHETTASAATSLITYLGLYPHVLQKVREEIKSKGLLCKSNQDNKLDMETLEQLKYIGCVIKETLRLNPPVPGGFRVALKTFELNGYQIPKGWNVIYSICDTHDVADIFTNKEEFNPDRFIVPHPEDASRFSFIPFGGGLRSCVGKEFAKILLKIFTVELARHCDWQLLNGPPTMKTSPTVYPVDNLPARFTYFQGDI
Protocol: (§1) CYP26A1 Oxidation Assay. […] After 24 h, the transfected cells were split into 12-well plates to ensure an equal number of transfected cells in each assay well. […] The peaks were identified based on their spectra and coelution with standards. The cell lysate was examined for expression of CYP26A1, -B1, and -C1 by SDS-PAGE and immunoblotting of the V5 epitope-tagged recombinant protein using an anti-V5 epitope monoclonal antibody (Invitrogen).

[1] = Liver retinoids of Lrat-/- mice 3 h after gavage with all-trans-ROL palmitate; assay type: in vivo, mouse; conditions: for Level of liver retinoids 3 hr following gavage with ROL palmitate / concentration at 3 h: Lrat-/- mice, 3 hr post-gavage, liver; for concentration at 3 h: Lrat−/− (LRAT-deficient knockout), mouse, oral, read-out: Level of liver retinoids 3 hr following gavage with ROL palmitate
Source text: Metabolism of Retinoids in Vivo. All animal experiments employed procedures approved by the University of Washington and conformed to recommendations of the American Veterinary Medical Association Panel on Euthanasia and recommendations of the Association of Research for Vision and Ophthalmology. Animals were maintained on a 12-h light and 12-h dark cycle. All manipulations were done under dim red or infrared light (>560 nm). Most experiments used 6-12-week-old mice. Lrat−/− mice were genotyped as described previously. Batten, et al. J. Biol. Chem. 279:10422-10432, 2004. Animals were maintained on a control chow diet up to 1 h prior to oral gavage. The appropriate amount of all-trans-ROL palmitate, all-trans-DROL, or all-trans-RA was dissolved in vegetable oil and administered by oral gavage 3 h prior to analysis.
Analysis of Retinoids. Liver (1 g) from retinoid gavaged or naive mice was homogenized in 2 ml of 137 mM NaCl, 2.7 mM KCl, and 10 mM sodium phosphate (pH 7.4) for 30 s using a Polytron homogenizer. 10 μl of 5 M NaOH was added to 3 ml of the ethanolic extract, and the nonpolar retinoids were extracted using 5 ml of hexane. The extraction was repeated, and the organic phases were combined, dried under vacuum, resuspended in hexane, and examined by normal phase HPLC using a normal phase column (Beckman Ultrasphere Si 5μ, 4.6×250 mm). The elution condition was an isocratic solvent system of 10% ethyl acetate in hexane (v/v) for 25 min at a flow rate of 1.4 ml/min at 20° C. with detection at 325 and 290 nm for the detection of nonpolar retinoids and 13,14-dihydroretinoids, respectively. The aqueous phase was acidified with 40 μl of 12 N HCl, and polar retinoids were extracted with 5 ml of hexane. The extraction was repeated, and the organic phases of the polar retinoid extractions were combined, dried, resuspended in solvent composed of 80% CH3CN, 10 mM ammonium acetate, 1% acetic acid, and examined by reverse phase HPLC. Analysis of polar retinoids from tissues was done by reverse phase HPLC using a narrowbore, 120-Å, 5-μm, 2.1×250 mm, Denali C18 column (Grace-Vydac, Hesperia, Calif.). The solvent system was composed of buffer A, 80% methanol, 20% 36 mM ammonium acetate (pH 4.7 adjusted with acetic acid), and buffer B, 100% methanol. The HPLC elution conditions were […], 100% buffer A for 40 min, 100% buffer B for 10 min, and 10 min equilibration in buffer A. The elution profiles of RA and DRA were monitored using an online diode array detector set at 350 and 290 nm, respectively. The peaks were identified based on their UV-visible spectra and/or coelution with synthetic or commercially available standards. The measured area of absorbance was converted to picomoles based on a calibration of the HPLC columns using a known amount of all-trans-RA or all-trans-ROL (Sigma) and all-trans-DROL or all-trans-DRA (synthetic standards). The extraction efficiency was monitored by spiking a tissue sample with [^3H]RA (PerkinElmer Life Sciences) and monitoring the radioactivity recovered from the HPLC column. In the case of liver samples the extraction efficiency was 95% or better. Mass spectrometry analyses of synthesized retinoids and of natural retinoids purified by HPLC were performed using a Kratos profile HV-3 direct probe mass spectrometer.

CYP26C1 = biological target: T2, CYP26C1 (Mus musculus, UniProt B2RXA7); conditions: 0.1 mM, 4 h, cells in culture
T2 sequence (B2RXA7 1-518): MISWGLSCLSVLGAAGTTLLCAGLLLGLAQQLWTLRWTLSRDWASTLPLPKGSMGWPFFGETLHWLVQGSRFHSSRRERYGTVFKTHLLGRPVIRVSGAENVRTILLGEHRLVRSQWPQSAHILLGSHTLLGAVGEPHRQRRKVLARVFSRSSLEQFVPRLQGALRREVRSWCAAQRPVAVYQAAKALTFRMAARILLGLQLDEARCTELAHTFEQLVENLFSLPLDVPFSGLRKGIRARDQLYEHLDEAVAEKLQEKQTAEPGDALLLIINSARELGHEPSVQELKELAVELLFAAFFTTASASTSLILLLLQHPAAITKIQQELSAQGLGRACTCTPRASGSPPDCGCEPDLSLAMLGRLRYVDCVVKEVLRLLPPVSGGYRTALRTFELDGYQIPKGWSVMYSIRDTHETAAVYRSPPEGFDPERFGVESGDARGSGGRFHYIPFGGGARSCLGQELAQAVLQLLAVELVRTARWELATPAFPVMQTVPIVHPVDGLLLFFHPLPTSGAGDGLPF
Protocol: as §1

RDH12 = biological target: T3, RDH12 (Homo sapiens, UniProt Q96NR8); test: Oxidation by RDH12; assay type: biochemical; conditions: results not shown
T3 sequence (Q96NR8 1-316): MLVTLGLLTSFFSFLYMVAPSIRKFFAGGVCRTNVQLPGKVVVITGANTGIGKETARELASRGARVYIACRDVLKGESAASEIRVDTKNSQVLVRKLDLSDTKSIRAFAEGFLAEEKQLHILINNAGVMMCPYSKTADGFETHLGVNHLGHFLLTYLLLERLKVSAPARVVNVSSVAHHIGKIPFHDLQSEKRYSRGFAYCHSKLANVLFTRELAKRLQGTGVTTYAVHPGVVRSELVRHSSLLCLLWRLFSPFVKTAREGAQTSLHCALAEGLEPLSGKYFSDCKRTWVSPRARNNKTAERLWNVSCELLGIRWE

[2] = 3 h post-gavage with ROL palmitate
[3] = 10^5 IU/kg body weight all-trans-ROL palmitate
[4] = 10^6 IU/kg body weight all-trans-ROL palmitate

Liver level, fold lower than all-trans-ROL [1, 2]	SMILES	Oxidation to polar metabolites by CYP26A1 (CYP26A1)	Liver level, fold lower than all-trans-RA [1, 2]	Level of liver retinoids 3 hr following gavage with ROL palmitate [1, 3]	Level of liver retinoids 3 hr following gavage with ROL palmitate [1, 4]	Oxidation to polar metabolites by CYP26C1 (CYP26C1)	Oxidation to the aldehyde by RDH12 (RDH12)	concentration at 3 h [1, 3] [µM]	concentration at 3 h [1, 4] [µM]
	CC1=C(/C=C/C(C)=C/C=C/C(C)CC(=O)O)C(C)(C)CCC1 (stereo not drawn) [all-trans-DRA, all-trans-13,14-dihydroretinoic acid]	efficiently carried out the oxidation	30-50 fold	10 ± 2 pmol/g tissue	190 ± 17 pmol/g tissue	efficiently carried out the oxidation			
280-330 fold	CC1=C(/C=C/C(C)=C/C=C/C(C)CCO)C(C)(C)CCC1 (stereo not drawn) [all-trans-DROL, all-trans-13,14-dihydroretinol]			21 ± 4 pmol/g tissue	100 ± 18 pmol/g tissue		much less so		
	CC1=C(/C=C/C(C)=C/C=C/C(C)=C/C(=O)O)C(C)(C)CCC1 [all-trans-RA, all-trans-retinoic acid, reference compound]	efficiently carried out the oxidation				efficiently carried out the oxidation		0.32 ± 0.24	9.4
	CC1=C(/C=C/C(C)=C/C=C/C(C)=C/CO)C(C)(C)CCC1 [all-trans-ROL, all-trans-retinol]			7,000 ± 1,200 pmol/g tissue	28,000 ± 300 pmol/g tissue		active		

Source: patent publication US20080249042A1, “All-Trans-Retinol: All-Trans-13,14-Dihydroretinol Saturase and Methods of Its Use” (UNIVERSITY OF WASHINGTON, priority 2004, published 2008)
